In BindingDB's records for patent US11708326 (Chemocentryx, 2023):
pIC50: −log10 of the molar value.

Biological target: Programmed cell death 1 ligand 1 (Homo sapiens, UniProt Q9NZQ7)
Test: Enzyme-Linked Immunosorbent Assay ELISA
Protocol: 96 Well plates were coated with 1 μg/mL of human PD-L1 (obtained from R&D) in PBS overnight at 4° C. The wells were then blocked with 2% BSA in PBS (W/V) with 0.05% TWEEN-20 for 1 hour at 37° C. The plates were washed 3 times with PBS/0.05% TWEEN-20 and the compounds were serial diluted (1:5) in dilution medium and added to the ELISA plates. Human PD-1 and biotin 0.3 μg/mL (ACRO Biosystems) were added and incubated for 1 hour at 37° C. then washed 3 times with PBS/0.05% TWEEN-20. A second block was performed with 2% BSA in PBS (W/V)/0.05% TWEEN-20 for 10 min at 37° C. and was washed 3 times with PBS/0.05% TWEEN-20. Streptavidin-HRP was added for 1 hour at 37° C. then washed 3 times with PBS/0.05% TWEEN-20. TMB substrate was added and reacted for 20 min at 37° C. A stop solution (2 N aqueous H2SO4) was added. The absorbance was read at 450 nm using a micro-plate spectrophotometer.

Programmed cell death 1 ligand 1, sequence (Q9NZQ7 whole entry): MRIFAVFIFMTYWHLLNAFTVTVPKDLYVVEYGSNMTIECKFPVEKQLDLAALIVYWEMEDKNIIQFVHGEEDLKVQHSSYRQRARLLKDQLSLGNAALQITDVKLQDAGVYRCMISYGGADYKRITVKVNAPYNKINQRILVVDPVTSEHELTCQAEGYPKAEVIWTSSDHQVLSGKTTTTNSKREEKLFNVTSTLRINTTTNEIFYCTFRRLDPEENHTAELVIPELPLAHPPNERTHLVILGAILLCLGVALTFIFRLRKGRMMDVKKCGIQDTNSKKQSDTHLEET

Row | SMILES | IC50 | pIC50
1 | Cc1c(OCCCN2CCC(F)(F)CC2)cccc1-c1cccc2c1CC[C@@H]2Oc1cc(OCc2cncc(C#N)c2)c(CN[C@H](C(=O)O)[C@@H](C)O)cc1Cl [US11708326, Compound TABLE 1.18] | in the range around 252 nM | –
2 | Cc1c(OCCCN2CC[C@@H](O)[C@H](F)C2)cccc1-c1cccc2c1CC[C@@H]2Oc1cc(OCc2cncc(C#N)c2)c(CN[C@H](C(=O)O)[C@@H](C)O)cc1Cl [US11708326, Compound TABLE 1.31] | in the range around 252 nM | –
3 | Cc1c(OCCCN2CC[C@H](O)[C@H](F)C2)cccc1-c1cccc2c1CC[C@@H]2Oc1cc(OCc2cncc(C#N)c2)c(CN[C@H](C(=O)O)[C@@H](C)O)cc1Cl [US11708326, Compound TABLE 1.34] | – | > 8.30
4 | N#Cc1cncc(COc2cc(O[C@H]3CCc4c(-c5cccc(OCCCN6CC(F)C6)c5Cl)cccc43)c(Cl)cc2CN[C@@H]2CCCC[C@@H]2O)c1 [US11708326, Compound TABLE 1.92] | – | > 8.30
5 | CCOc1cc(NC2CCc3c(-c4cccc(OCCCN5CCC(F)CC5)c4C)cccc32)c(Cl)cc1CN[C@@H](CO)C(=O)O (stereo not given in full) [US11708326, Compound TABLE 1.117] | in the range around 252 nM | –
6 | CC(CO)(NCc1cc(Cl)c(O[C@H]2CCc3c(-c4cccc(OCCCN5CCCCC5)c4Cl)cccc32)cc1OCc1cncc(C#N)c1)C(=O)O (stereo not given in full) [US11708326, Compound TABLE 1.130] | – | > 8.30
7 | N#Cc1cncc(COc2cc(O[C@H]3CCc4c(-c5cccc(OCCCN6CC(O)C6)c5Cl)cccc43)c(Cl)cc2CN2CCCC3(C2)NC(=O)NC3=O)c1 (stereo not given in full) [US11708326, Compound TABLE 1.137] | – | > 8.30
8 | N#Cc1cncc(COc2cc(O[C@H]3CCc4c(-c5cccc(OCCCN6CC7(CC(O)C7)C6)c5Cl)cccc43)c(Cl)cc2CNC[C@@H]2CCC(=O)N2)c1 [US11708326, Compound TABLE 1.164] | – | > 8.30
9 | N#Cc1cncc(COc2cc(O[C@H]3CCc4c(-c5cccc(OCCCN6CC7(CC(O)C7)C6)c5Cl)cccc43)c(Cl)cc2CNC[C@H]2CCC(=O)N2)c1 [US11708326, Compound TABLE 1.165] | – | > 8.30
10 | Cc1c(OCCCN2CCC(C)CC2)cccc1-c1cccc2c1CC[C@@H]2Oc1cc(OCc2cc(C#N)cc(C#N)c2)c(CN[C@H]2CCC(=O)NC2)cc1Cl [US11708326, Compound TABLE 1.296] | in the range around 252 nM | –
11 | Cc1c(OCCCN2[C@H](C)CCC[C@@H]2C)cccc1-c1cccc2c1CC[C@@H]2Oc1cc(OCc2cc(C#N)cc(C#N)c2)c(CN[C@H]2CCC(=O)NC2)cc1Cl [US11708326, Compound TABLE 1.298] | in the range around 252 nM | –
12 | Cc1c(OCCCN2C(C)CCC2C)cccc1-c1cccc2c1CC[C@@H]2Oc1cc(OCc2cc(C#N)cc(C#N)c2)c(CN[C@H]2CCC(=O)NC2)cc1Cl (stereo not given in full) [US11708326, Compound TABLE 1.304] | – | > 8.30
13 | Cc1c(OCCCN2CCCC2C(C)C)cccc1-c1cccc2c1CC[C@@H]2Oc1cc(OCc2cc(C#N)cc(C#N)c2)c(CN[C@H]2CCC(=O)NC2)cc1Cl (stereo not given in full) [US11708326, Compound TABLE 1.305] | in the range around 252 nM | –
14 | Cc1c(OCCCN2CCCC[C@@H]2C)cccc1-c1cccc2c1CC[C@@H]2Oc1cc(OCc2cc(C#N)cc(C#N)c2)c(CN[C@H]2CCC(=O)NC2)cc1Cl [US11708326, Compound TABLE 1.315] | – | > 8.30
15 | Cc1c(OCCCN2CCC2(C)C)cccc1-c1cccc2c1CC[C@@H]2Oc1cc(OCc2cc(C#N)cc(C#N)c2)c(CN[C@H]2CCC(=O)NC2)cc1Cl [US11708326, Compound TABLE 1.323] | – | > 8.30
16 | Cc1c(OCCCN2[C@H](C)CC[C@@H]2C)cccc1-c1cccc2c1CC[C@@H]2Oc1cc(OCc2cc(C#N)cc(C#N)c2)c(CN[C@H]2CCC(=O)NC2)cc1Cl [US11708326, Compound TABLE 1.333] | – | > 8.30
17 | Cc1c(OCCCN2[C@H](C)CC[C@H]2C)cccc1-c1cccc2c1CC[C@@H]2Oc1cc(OCc2cc(C#N)cc(C#N)c2)c(CN[C@H]2CCC(=O)NC2)cc1Cl [US11708326, Compound TABLE 1.334] | – | > 8.30
18 | Cc1c(OCCCN2[C@@H](C)CC[C@@H]2C)cccc1-c1cccc2c1CC[C@@H]2Oc1cc(OCc2cc(C#N)cc(C#N)c2)c(CN[C@H]2CCC(=O)NC2)cc1Cl [US11708326, Compound TABLE 1.335] | – | > 8.30
19 | CCOc1cc(O[C@H]2CCc3c(-c4cccc(OCCCN5CCC5(C)C)c4C)cccc32)c(Cl)cc1CN(C)CC(=O)O [US11708326, Compound TABLE 1.378] | in the range around 252 nM | –
20 | CCOc1cc(O[C@H]2CCc3c(-c4cccc(OCCCN5CCC5(C)C)c4C)cccc32)c(Cl)cc1CNCCC(=O)OC(C)C [US11708326, Compound TABLE 1.393] | in the range around 252 nM | –
